From US10106544B2, “1,2-dihydro-3H-pyrrolo[1,2-C]imidazol-3-one derivatives and their use as antibacterial agents” (priority 2014, dated 2018)
Values after ≈ are worked out from the molar mass of the structure shown. Like-named read-outs stand apart in the source and are kept apart here.

Legend:
Type in all cases: cell-based
wild-type E. coli A-1261 = assay: MIC against wild-type E. coli A-1261 with or without alkaline phosphatase or esterase; conditions: Escherichia coli
Procedure: Minimal Inhibitory Concentrations (MICs; mg/L) were determined in cation-adjusted Mueller-Hinton Broth by a microdilution method following the description given in “Methods for Dilution Antimicrobial Susceptibility Tests for Bacteria that Grow Aerobically”, Approved standard, 7th ed., a Clinical and Laboratory Standards Institute (CLSI) Document M7-A7, Wayne, Pa., USA (2006).
The compounds of Examples 37, 50, 51 and 74 were tested against wild-type E. coli A-1261 in the absence of alkaline phosphatase or esterase, in the presence of an alkaline phosphatase and in the presence of an esterase. The corresponding antibacterial test results are given in Table 2 hereafter (MICs in mg/L).

K. pneumoniae A-651 = assay: Bacterial growth minimal inhibitory concentration (microdilution, cation-adjusted Mueller-Hinton Broth); conditions: Klebsiella pneumoniae, A651; multiply-resistant strain (in particular quinolone-resistant); read-out: MIC for K. Pneumoniae A-651
Summary of the method: (§1)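 Broth microdilution in cation-adjusted Mueller-Hinton Broth per CLSI M7-A7, MIC in mg/L. K. pneumoniae A-651 is multiply resistant, including to quinolones. E. coli ATCC25922 and P. aeruginosa ATCC27853 are quinolone-sensitive.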

P. aeruginosa ATCC27853 = assay: as above; conditions: Pseudomonas aeruginosa, ATCC27853, quinolone-sensitive strain; read-out: MIC for P. aeruginosa ATCC27853
Summary of the method: as §1

E. coli ATCC25922 = assay: as above; conditions: Escherichia coli, ATCC25922; quinolone-sensitive strain; read-out: MIC for E. coli ATCC25922
Summary of the method: as §1

[1] = read-out: MIC for E. coli A-1261 In the absence of alkaline phosphatase or esterase
[2] = read-out: MIC for E. coli A-1261 In the presence of an alkaline phosphatase (2 i.U./mL)
[3] = read-out: MIC for E. coli A-1261 In the presence of an esterase (10 i.U./mL)

| MIC (wild-type E. coli A-1261; [1]) | MIC (wild-type E. coli A-1261; [2]) | MIC (wild-type E. coli A-1261; [3]) | MIC (K. pneumoniae A-651) | MIC (P. aeruginosa ATCC27853) | MIC (E. coli ATCC25922) | Structure (SMILES) |
| --- | --- | --- | --- | --- | --- | --- |
| 0.25 µg/mL | 0.125 µg/mL | 0.25 µg/mL | 1 µg/mL | 4 µg/mL | 0.5 µg/mL | CN(C)CC(=O)OCC1(c2ccc(C#Cc3cc4n(c3)C(=O)N(CC[C@](C)(C(=O)NO)S(C)(=O)=O)C4)cc2)CC1.Cl [Example 37, (R)-(1-(4-((2-(4-(hydroxyamino)-3-methyl-3-(methylsulfonyl)-4-oxobutyl)-3-oxo-2,3-dihydro-1H-pyrrolo[1,2-c]imidazol-6-yl)ethynyl)phenyl)cyclopropyl)methyl dimethylglycinate hydrochloride] |
| 2 µg/mL | 1 µg/mL | 0.5 µg/mL |  |  |  | CN(C)CC(=O)OCC1(C#CC#Cc2cc3n(c2)C(=O)N(CC[C@](C)(C(=O)NO)S(C)(=O)=O)C3)CC1.Cl [Example 50, (R)-(1-((2-(4-(hydroxyamino)-3-methyl-3-(methylsulfonyl)-4-oxobutyl)-3-oxo-2,3-dihydro-1H-pyrrolo[1,2-c]imidazol-6-yl)buta-1,3-diyn-1-yl)cyclopropyl)methyl dimethylglycinate hydrochloride] |
| > 16 µg/mL | 0.5 µg/mL | 16 µg/mL |  |  |  | C[C@@](CCN1Cc2cc(C#CC#CC3(COP(=O)(O)O)CC3)cn2C1=O)(C(=O)NO)S(C)(=O)=O [Example 51, (R)-(1-((2-(4-(hydroxyamino)-3-methyl-3-(methylsulfonyl)-4-oxobutyl)-3-oxo-2,3-dihydro-1H-pyrrolo[1,2-c]imidazol-6-yl)buta-1,3-diyn-1-yl)cyclopropyl)methyl dihydrogen phosphate] |
| 4 µg/mL (≈ 6.99 µM) | 0.25 µg/mL | 4 µg/mL |  |  |  | C[C@@](CCN1Cc2cc(C#CC#CC3(NC(=O)OCOP(=O)(O)O)CC3)cn2C1=O)(C(=O)NO)S(C)(=O)=O [Example 74, (phosphonooxy)methyl (R)-(1-((2-(4-(hydroxyamino)-3-methyl-3-(methylsulfonyl)-4-oxobutyl)-3-oxo-2,3-dihydro-1H-pyrrolo[1,2-c]imidazol-6-yl)buta-1,3-diyn-1-yl)cyclopropyl)carbamate] |
